Patent US12649733B2, “3,6-diamino-pyridazin-3-yl derivatives, pharmaceutical compositions containing them and their uses as pro-apoptotic agents” (LES LABORATOIRES SERVIER, priority 2019, dated 2026)

Legend:
H146 cells = assay: H146 cell viability, MTT assay; assay type: cell-based; conditions: Homo sapiens, NCI-H146, 48 h, 48 h exposure
Protocol: (§1) MTT colorimetric assay is based on the mitochondrial reduction of tetrazolium salt by living cells. The viable cell number is proportional to the production of formazan salts, which can be read spectrophotometrically at 540 nm.
(§2) MOLT-4 and H146 cells were purchased from ATCC and cultivated in RPMI 1640 supplemented with 10% heat inactivated fetal bovine serum, penicillin (100 IU/ml), streptomycin (100 μg/ml) and L-glutamine (2 mM). Cells were cultured at 37° C. in a humidified atmosphere containing 5% CO2. Cells were seeded in 96 microwell plates (150 μL per well) and exposed to the compounds for 48 h (3.16 fold serially diluted; 9 concentrations each, triplicates). At the end of incubation time, 15 μL of MTT solution (5 mg/ml) were added per well and the cells were incubated for another 4 h. Then, 100 μL of 10% Sodium Dodecyl Sulfate (SDS)/HCl 10 mM were added per well and the plate was incubated overnight, before measurement of optical density at 540 nm. IC50s were calculated using standard four-parametric curve fitting.

BCLXL = BCLXL (Homo sapiens, UniProt Q07817, V10N/V9A); assay: Fluorescence polarisation assay (PUMA-based probe displacement); assay type: binding; note: 20 nM protein, 10 nM fluorescent probe
Protocol: Fluorescence polarization measures the rotation of a fluorescing species in solution, the larger the molecule the more polarized the fluorescence emission.
[[…]] (GST UniProtKB® primary accession number P08515 and BCLXL UniProtKB® primary accession number Q07817-1),
resulting in an increase in anisotropy. If a compound is added which competitively binds to the same site as the probe, thereby releasing it, anisotropy decreases due to the increased amount of free probe.
An 11-point serial dilution of each compound was prepared in DMSO, the final buffer conditions were 10 mM 4-(2-hydroxyethyl)-1-piperazineethanesulfonic acid [HEPES], 150 mM NaCl, 0.05% Tween 20, pH 7.4 and 5% DMSO. The final protein concentration in the assay was 20 nM with the fluorescent probe present at 10 nM. The experiments were incubated for 2 hours at 23° C. before fluorescence polarization was measured on a Biotek SynergyNeo plate reader (Excitation 485 nm, emission 525 nm, parallel and perpendicular reads). […] The KI values were determined from the IC50 values according to Cer et al, Nucleic Acids Res, 2009, Jul. 1: 37(WebServer issue): W441-W445.

MOLT-4 cells = assay: MOLT-4 cell viability, MTT assay; assay type: cell-based; conditions: Homo sapiens, MOLT-4, 48 h, 48 h exposure
Protocol: as §1, §2

Sequence of BCLXL (Q07817 with tags, fused parts or gaps V9A/V10N): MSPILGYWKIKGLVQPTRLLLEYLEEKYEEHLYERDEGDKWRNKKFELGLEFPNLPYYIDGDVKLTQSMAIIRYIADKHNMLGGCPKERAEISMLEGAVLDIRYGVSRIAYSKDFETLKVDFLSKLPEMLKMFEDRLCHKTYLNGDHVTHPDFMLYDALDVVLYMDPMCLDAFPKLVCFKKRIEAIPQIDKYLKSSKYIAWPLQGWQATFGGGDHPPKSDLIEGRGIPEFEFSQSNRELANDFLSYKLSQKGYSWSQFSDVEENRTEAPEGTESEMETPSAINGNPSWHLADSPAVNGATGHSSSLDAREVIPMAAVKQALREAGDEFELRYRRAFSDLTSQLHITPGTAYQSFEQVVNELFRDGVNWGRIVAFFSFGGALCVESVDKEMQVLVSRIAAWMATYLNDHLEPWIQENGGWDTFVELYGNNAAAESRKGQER

| IC50 (H146 cells) | Ki (BCLXL) | IC50 (MOLT-4 cells) | Compound |
| --- | --- | --- | --- |
| 9.58 µM |  |  | Cc1cc(N(C)c2nc(C(=O)O)cs2)nnc1Nc1nc2ccccc2s1 [Example 21, 2-({6-[(1,3-Benzothiazol-2-yl)amino]-5-methylpyridazin-3-yl}(methyl)amino)-1,3-thiazole-4-carboxylic acid] |
|  | 0.019 µM |  | COCCCC1(Cn2ncc(-c3sc(N(C)c4cc(C)c(Nc5nc6ccccc6s5)nn4)nc3C(=O)O)c2C)CCCCCCC1 [Example 43, 2-({6-[(1,3-Benzothiazol-2-yl)amino]-5-methylpyridazin-3-yl}(methyl)amino)-5-(1-{[1-(3-methoxypropyl)cyclooctyl]methyl}-5-methyl-1H-pyrazol-4-yl)-1,3-thiazole-4-carboxylic acid] |
|  | 0.16 µM |  | Cc1cc(N(C)c2nc(C(=O)O)c(N3CC(O)C3)s2)nnc1Nc1nc2ccccc2s1 [Example 72, 2-({6-[(1,3-Benzothiazol-2-yl)amino]-5-methylpyridazin-3-yl}(methyl)amino)-5-(3-hydroxyazetidin-1-yl)-1,3-thiazole-4-carboxylic acid] |
|  | 0.092 µM |  | Cc1cc(N(C)c2nc(C(=O)O)c(N3CC[C@@H](Oc4ccccc4)C3)s2)nnc1Nc1nc2ccccc2s1 [Example 79, 2-({6-[(1,3-Benzothiazol-2-yl)amino]-5-methylpyridazin-3-yl}(methyl)amino)-5-[(3R)-3-phenoxypyrrolidin-1-yl]-1,3-thiazole-4-carboxylic acid] |
|  | 0.08 µM |  | Cc1cc(N(C)c2nc(C(=O)O)c(N3CCCCC3)s2)nnc1Nc1nc2ccccc2s1 [Example 80, 2-({6-[(1,3-Benzothiazol-2-yl)amino]-5-methylpyridazin-3-yl}(methyl)amino)-5-(piperidin-1-yl)-1,3-thiazole-4-carboxylic acid] |
|  | 0.016 µM |  | Cc1cc(N(C)c2nc(C(=O)O)c(N3CCC(Oc4ccccc4)CC3)s2)nnc1Nc1nc2ccccc2s1 [Example 81, 2-({6-[(1,3-Benzothiazol-2-yl)amino]-5-methylpyridazin-3-yl}(methyl)amino)-5-(4-phenoxypiperidin-1-yl)-1,3-thiazole-4-carboxylic acid] |
|  | 2.4 µM |  | Cc1cc(N(C)c2nc(C(=O)O)c(C3CCN(C)CC3)s2)nnc1Nc1nc2ccccc2s1 [Example 99, 2-({6-[(1,3-Benzothiazol-2-yl)amino]-5-methylpyridazin-3-yl}(methyl)amino)-5-(1-methylpiperidin-4-yl)-1,3-thiazole-4-carboxylic acid] |
|  | 0.13 µM |  | Cc1cc(N(CC(CO)N2CCOCC2)c2nc(C(=O)O)cs2)nnc1Nc1nc2ccccc2s1 (centres unmarked) [Example 107, 2-[[6-(1,3-Benzothiazol-2-ylamino)-5-methyl-pyridazin-3-yl]-(3-hydroxy-2-morpholino-propyl)amino]thiazole-4-carboxylic acid] |
|  | 1.3 µM |  | Cc1cc(N(C)c2nc(C(=O)O)c(C3CN(S(C)(=O)=O)C3)s2)nnc1Nc1nc2ccccc2s1 [Example 149, 2-({6-[(1,3-Benzothiazol-2-yl)amino]-5-methylpyridazin-3-yl}(methyl)amino)-5-(1-methanesulfonylazetidin-3-yl)-1,3-thiazole-4-carboxylic acid] |

Continued, compound first:

| Compound | IC50 (H146 cells) | Ki (BCLXL) | IC50 (MOLT-4 cells) |
| --- | --- | --- | --- |
| Cc1c(Nc2nc(C(=O)O)cs2)nnc(Nc2nc3ccccc3s2)c1C [Example 1] | 15 µM |  |  |
| O=C(O)c1csc(Nc2ccc(Nc3nc4ccccc4s3)nn2)n1 [Example 4, 2-({6-[(1,3-Benzothiazol-2-yl)amino]pyridazin-3-yl}amino)-1,3-thiazole-4-carboxylic acid] |  | 0.91 µM |  |
| Cc1cc(Nc2nc(C(=O)O)cs2)nnc1Nc1nc2ccccc2s1 [Example 7, 2-({6-[(1,3-Benzothiazol-2-yl)amino]-5-methylpyridazin-3-yl}amino)-1,3-thiazole-4-carboxylic acid] | > 15 µM |  |  |
| Cc1cc(Nc2nc3ccccc3s2)nnc1Nc1nc(C(=O)O)cs1 [Example 11, 2-({6-[(1,3-Benzothiazol-2-yl)amino]-4-methylpyridazin-3-yl}amino)-1,3-thiazole-4-carboxylic acid] |  | 0.6 µM |  |
| O=C(O)c1csc(Nc2nnc(Nc3nc4ccccc4s3)c3c2CCCC3)n1 [Example 17, 2-[[4-(1,3-Benzothiazol-2-ylamino)-5,6,7,8-tetrahydrophthalazin-1-yl]amino]thiazole-4-carboxylic acid] | 13.4 µM |  | 7.88 µM |
| Cc1c(Nc2nc(C(=O)O)cs2)nnc(Nc2nc3ccccc3s2)c1C1CC1 [Example 20, 2-({6-[(1,3-Benzothiazol-2-yl)amino]-5-cyclopropyl-4-methylpyridazin-3-yl}amino)-1,3-thiazole-4-carboxylic acid] | 3.35 µM |  | 7.21 µM |
| Cc1c(Nc2nc3ccccc3s2)nnc(N(C)c2nc(C(=O)O)cs2)c1C [Example 26, 2-({6-[(1,3-Benzothiazol-2-yl)amino]-4,5-dimethylpyridazin-3-yl}(methyl)amino)-1,3-thiazole-4-carboxylic acid] | > 15 µM |  | > 15 µM |
| COCc1c(Nc2nc(C(=O)O)cs2)nnc(Nc2nc3ccccc3s2)c1C [Example 29, 2-({6-[(1,3-Benzothiazol-2-yl)amino]-4-(methoxymethyl)-5-methylpyridazin-3-yl}amino)-1,3-thiazole-4-carboxylic acid] | > 15 µM |  | > 15 µM |
| Cc1c(Nc2nc(C(=O)O)cs2)nnc(Nc2nc3c(C)cccc3s2)c1C [Example 48, 2-[[4,5-dimethyl-6-[(4-methyl-1,3-benzothiazol-2-yl)amino]pyridazin-3-yl]amino]thiazole-4-carboxylic acid] |  | 1.9 µM |  |
| Cc1c(Nc2nc3ccccc3s2)nnc(Nc2nc(C(=O)O)cs2)c1CCCN1CCN(C)CC1 [Example 51, 2-({6-[(1,3-Benzothiazol-2-yl)amino]-5-methyl-4-[3-(4-methylpiperazin-1-yl)propyl]pyridazin-3-yl}amino)-1,3-thiazole-4-carboxylic acid] | > 15 µM |  | > 15 µM |
| Cc1c(Nc2nc(C(=O)O)cs2)nnc(Nc2nc3c(F)cccc3s2)c1C [Example 55, 2-[[6-[(4-Fluoro-1,3-benzothiazol-2-yl)amino]-4,5-dimethyl-pyridazin-3-yl]amino]thiazole-4-carboxylic acid] |  | 0.082 µM |  |
| Cc1cc(N(CC(O)CO)c2nc(C(=O)O)cs2)nnc1Nc1nc2ccccc2s1 (centres unmarked) [Example 103, 2-[[6-(1,3-Benzothiazol-2-ylamino)-5-methyl-pyridazin-3-yl]-(2,3-dihydroxypropyl)amino]thiazole-4-carboxylic acid] |  | 0.014 µM |  |
| Cc1cc(N(CCCC(O)CO)c2nc(C(=O)O)cs2)nnc1Nc1nc2ccccc2s1 (centres unmarked) [Example 104, 2-[[6-(1,3-Benzothiazol-2-ylamino)-5-methyl-pyridazin-3-yl]-(4,5-dihydroxypentyl)amino]thiazole-4-carboxylic acid] |  | 0.016 µM |  |
| CNCC#Cc1ccc(OCCCc2sc(N(CCCC(O)CN(C)CCP(=O)(O)O)c3cc(C)c(Nc4nc5ccccc5s4)nn3)nc2C(=O)O)c(F)c1 (centres unmarked) [Example 196, 2-[[6-(1,3-Benzothiazol-2-ylamino)-5-methyl-pyridazin-3-yl]-[4-hydroxy-5-[methyl(2-phosphonoethyl)amino]pentyl]amino]-5-[3-[2-fluoro-4-[3-(methylamino)prop-1-ynyl]phenoxy]propyl]thiazole-4-carboxylic acid] | 1.62 µM |  | 0.879 µM |
| CNCC#Cc1ccc(OCCCc2sc(N(CCC[N+](C)(C)C)c3cc(C)c(Nc4nc5ccccc5s4)nn3)nc2C(=O)[O-])c(F)c1 [Example 202, 2-[[6-(1,3-Benzothiazol-2-ylamino)-5-methyl-pyridazin-3-yl]-[3-(trimethylammonio)propyl]amino]-5-[3-[2-fluoro-4-[3-(methylamino)prop-1-ynyl]phenoxy]propyl]thiazole-4-carboxylate] | 0.0748 µM |  | 0.611 µM |
| CNCC#Cc1ccc(OCCCc2sc(N(CCCCN(C)C)c3cc(C)c(Nc4nc5ccccc5s4)nn3)nc2C(=O)O)c(F)c1 [Example 210, 2-[[6-(1,3-Benzothiazol-2-ylamino)-5-methyl-pyridazin-3-yl]-[4-(dimethylamino)butyl]amino]-5-[3-[2-fluoro-4-[3-(methylamino)prop-1-ynyl]phenoxy]propyl]thiazole-4-carboxylic acid] | 0.0214 µM |  | 0.0203 µM |
| CNCC#Cc1ccc(OCCCc2sc(N(CCCCC[N+](C)(C)C)c3cc(C)c(Nc4nc5ccccc5s4)nn3)nc2C(=O)O)c(F)c1 [Example 219, 2-[[6-(1,3-Benzothiazol-2-ylamino)-5-methyl-pyridazin-3-yl]-[5-(trimethylammonio)pentyl]amino]-5-[3-[2-fluoro-4-[3-(methylamino)prop-1-ynyl]phenoxy]propyl]thiazole-4-carboxylate] | 0.129 µM |  | 1.27 µM |
